Results reported in patent US9164090B2, “Methods for detecting molecular interactions” (Korea Advanced Institute of Science and Technology, priority 2007, dated 2015).

Tests used:
FKBP protein = molecular target: T1, FKBP protein (Homo sapiens, UniProt P62942); assay: Formation of nano-assembly matrices of FKBP (wild type)-ferritin by AP1510 in Hela cells; assay type: cell-based; conditions: 1 μM AP1510
T1 construct: fluorescent protein (mRFP); ferritin (FT); expressed in transfected cells; host or cells: HeLa
T1 sequence (P62942 whole entry): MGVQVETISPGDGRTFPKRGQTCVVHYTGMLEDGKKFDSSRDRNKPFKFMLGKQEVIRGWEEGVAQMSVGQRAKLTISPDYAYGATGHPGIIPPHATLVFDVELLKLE
Excerpt: In this experiment, a FKBP (wild type) protein was used as a material for inducing the formation of nano-assembly matrices, while an AP1510 compound was used as a material for mediating the binding between FKBP proteins. The AP1510 compound is a FK506-like compound and is a mediator (regulator) material, which has two moieties capable of binding to the FKBP protein, linked with each other by a linker, such that it can interact simultaneously with two molecules of the FKBP protein.
Two FKBP (wild type) proteins were continuously fused to ferritin and expressed in Hela cells. The cells were treated with 1 μM of the AP1510 compound, which is an FKBP interaction mediator (regulator) material, and the formation of nano-assembly matrices within 1 hour was observed through In-Cell Analyzer 1000 (GE) (FIG. 35). After the formation of the nano-assembly matrices was induced for 3 hours, the cells were treated with 250 nM of Rapamycin for 1 hour.
For the case where mRFP was attached to the FKBP protein in Example 7, various fluorescent proteins, such as ECFP, TagCFP and mTFP1, were attached to the FKBP protein to examine the effect of the AP1510 compound on the induction of formation of nano-assembly matrices.
FKBP was fused to the ferritin protein, and the three different fluorescent proteins were attached between FKBP and ferritin, and then expressed in Hela cells. […]

IkBα and IKKb = assay: Formation of nano-assembly matrix by IKKb-IkBα interaction on physiological signal in Hela cells; assay type: cell-based; conditions: TNFa treatment; FRB-ECFP-FT, IKKb-mRFP-FKBP and IkBα-YFP-FKBP
Excerpt: In another example, IKKb-IkBα proteins were used as prey-bait, and TNFa was used as a material for mediating (regulating) the interaction between them. The IkBα and IKKb proteins interact with each other, only when a physiological external signal of TNFa is transferred to cells. The interaction between phosphorylase (such as IKKb) and IkBα that is the substrate thereof is known as one of the weakest interactions in cells. The recombinant genes FRB-ECFP-FT, IKKb-mRFP-FKBP and IkBα-YFP-FKBP were introduced together into Hela cells, and each of the fusion proteins was expressed in the cells.

Molecule | induction of formation of nano-assembly matrices depending on fluorescent protein (FKBP protein; ECFP, TagCFP or mTFP1 between FKBP and ferritin) | time to formation of nano-assembly matrices (FKBP protein; two FKBP (wild type) fused to ferritin) [h] | formation of nano-assembly matrix (IkBα and IKKb)
CCC(C)(C)C(=O)C(=O)N1CCCC[C@H]1C(=O)O[C@H](CCc1ccc(OC)c(OC)c1)c1cccc(OCC(=O)NCCNC(=O)COc2cccc([C@@H](CCc3ccc(OC)c(OC)c3)OC(=O)[C@@H]3CCCCN3C(=O)C(=O)C(C)(C)CC)c2)c1 [AP1510] | induced more effectively in the case of TagCFP-mTFP1 and mTFP1 than the case of ECFP | ≤ 1 | 
TNFa |  |  | a large nano-assembly matrix was formed in cells
